pKd: −log10 of the molar value.
Target: Peptidyl-prolyl cis-trans isomerase FKBP1A (Homo sapiens, UniProt P62942)
Assay: Binding affinity towards FK506 binding protein 12 as measured by displacement of a radiolabeled FK506 analogue

Sequence of Peptidyl-prolyl cis-trans isomerase FKBP1A (P62942 whole entry): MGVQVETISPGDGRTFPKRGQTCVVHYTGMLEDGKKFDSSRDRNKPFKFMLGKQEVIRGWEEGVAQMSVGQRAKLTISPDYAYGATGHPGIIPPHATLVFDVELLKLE

Compound | pKd
C=CCC1/C=C(\C)CCOC(=O)OC(=O)CCC(=O)C(=O)OC(=O)C(=O)N2CCCC[C@H]2C(=O)O[C@H](CCc2cccnc2)[C@H](C)CCC1=O (some centres not stated) | 5.26
C=CCC1/C=C(\C)CCCOC(=O)OC(=O)C2CC[C@@H](O2)C(=O)C(=O)C(=O)OC(=O)C(=O)N2CCCC[C@H]2C(=O)O[C@H](CCc2cccnc2)[C@H](C)CCC1=O (some centres not stated) | 6.70
C=CCC1/C=C(\C)CCOC(=O)OC(=O)CCCC(=O)C(=O)OC(=O)C(=O)N2CCCC[C@H]2C(=O)O[C@H](CCc2cccnc2)[C@H](C)CCC1=O (some centres not stated) | 5.70
C=CCC1/C=C(\C)CCOC(=O)OC(=O)CCCCC(=O)C(=O)OC(=O)C(=O)N2CCCC[C@H]2C(=O)O[C@H](CCc2cccnc2)[C@H](C)CCC1=O (some centres not stated) | 5.35

Next, values leading:

pKd | Compound
5.10 | C=CCC1/C=C(\C)CCOC(=O)OC(=O)C2CC[C@@](C)(O2)C(=O)C(=O)C(=O)OC(=O)C(=O)N2CCCC[C@H]2C(=O)O[C@H](CCc2cccnc2)[C@H](C)CCC1=O (some centres not stated)
5.40 | C=CCC1/C=C(\C)CCCOC(=O)OC(=O)C2CC[C@@](C)(O2)C(=O)C(=O)C(=O)OC(=O)C(=O)N2CCCC[C@H]2C(=O)O[C@H](CCc2cccnc2)[C@H](C)CCC1=O (some centres not stated)
6.40 | C=CCC1/C=C(\C)CCOC(=O)OC(=O)C2CC[C@@H](O2)C(=O)C(=O)C(=O)OC(=O)C(=O)N2CCCC[C@H]2C(=O)O[C@H](CCc2cccnc2)[C@H](C)CCC1=O (some centres not stated)
